The results in this text go back to PubChem BioAssay AID1117337 (Cheminformatics & Chemogenomics Research Group (CCRG), …, 2015).

Calls of active or inactive are those of the source. No rule for the calls is given here. Bounds are passed on as bounds.

A word on the IC50: it is the point on the concentration scale where inhibition reaches its midpoint.

In the assay the test system is ADSC/ECFC co-culture, VEGF-stimulated, CD31 tube area. As to the kind of experiment: inhibition of endothelial tube formation, dose response, imaging, VEGF stimulation, CD31 staining, tube area, IC50 (AID 1117337).
Take `COC(=O)c1nc(Cl)c(Cl)nc1N`: the IC50 is 0.865 µM. In the case of `Oc1c(Br)cc(Br)c2cccnc12`, the IC50 is > 10 µM (inactive).

As to `COC(=O)C1=C(C)NC(C)=C(C(=O)OCCN2CCN(C(c3ccccc3)c3ccccc3)CC2)C1c1cccc([N+](=O)[O-])c1` (centres undefined), the IC50 is > 10 µM (inactive).

With `COc1cc([C@@H]2c3cc4c(cc3[C@H](O)[C@H]3COC(=O)[C@H]23)OCO4)cc(OC)c1OC`, the IC50 is 0.0081 µM. The value for `CC(C)C[C@H](NC(=O)[C@H](CCc1ccccc1)NC(=O)CN1CCOCC1)C(=O)N[C@@H](Cc1ccccc1)C(=O)N[C@@H](CC(C)C)C(=O)[C@@]1(C)CO1` was 0.0204 µM; that for `CC(=O)NC(=O)c1ccccc1O` was > 10 µM (inactive); that for `CCCCCCNC(=O)n1cc(F)c(=O)[nH]c1=O` was 4.49 µM. On to `CC(C)(CO)[C@@H](O)C(=O)NCCC(=O)NCCSSCCNC(=O)CCNC(=O)[C@H](O)C(C)(C)CO`, for which the IC50 is > 10 µM (inactive). The value for `CCCCC(CC)COC(=O)C(C#N)=C(c1ccccc1)c1ccccc1` (centres undefined) was > 10 µM (inactive); that for `O=C1C2CC=CCC2C(=O)N1SC(Cl)(Cl)Cl` (centres undefined) was > 10 µM (inactive). The figure for `Cc1onc(-c2c(Cl)cccc2Cl)c1C(=O)Cl` is > 10 µM (inactive). On to `Nc1nc(=O)n([C@@H]2O[C@H](CO)[C@@H](O)[C@@H]2F)cc1I`, for which the IC50 is 3.47 µM. `O=c1[nH]sc2cc(Cl)ccc12`: the IC50 was > 10 µM (inactive). The value for `O=C(Nc1ccc([N+](=O)[O-])cc1Cl)c1cc(Cl)ccc1O` was 0.112 µM. The figure for `CCCCCCCC/C=C\CCCCCCCCN` is > 10 µM (inactive). The figure for `C[S+](CC[C@H](N)C(=O)O)C[C@H]1O[C@@H](n2cnc3c(N)ncnc32)[C@H](O)[C@H]1O` (some centres undefined) is > 10 µM (inactive); for `O=C(CBr)Nc1ccc(Cl)cc1C(=O)c1ccccc1F` it is > 10 µM (inactive); for `Clc1ccc(C(Cn2ccnc2)OCc2ccsc2Cl)c(Cl)c1` (centres undefined) it is 5 µM. For `C=CCCCCCCCCC(=O)OC`, the IC50 was > 10 µM (inactive).

Consider `Cc1ccc(Nc2c(F)cccc2Cl)c(CC(=O)O)c1`, for which the IC50 is > 10 µM (inactive).

As for `CC1(C)[C@H](C=C(Cl)Cl)[C@@H]1C(=O)OCc1c(F)c(F)cc(F)c1F`, the IC50 was > 10 µM (inactive). `Cc1nc2ccccc2n1Cc1ccc(Cl)cc1`: the IC50 is 7.38 µM (inactive). As for `O=C1c2c(O)cccc2Cc2cccc(O)c21`, the IC50 is 0.604 µM. As for `COC(=O)CCCCC(CCSS/C(CCO)=C(\C)N(C=O)Cc1cnc(C)nc1N)SC(C)=O` (centres undefined), the IC50 is > 10 µM (inactive).

As to `CC(C)=CCNc1ncnc2c1ncn2[C@@H]1O[C@H](CO)[C@@H](O)[C@H]1O`, the IC50 was 2.66 µM.

`C[C@@H](O[C@H]1OCCN(Cc2n[nH]c(=O)[nH]2)[C@H]1c1ccc(F)cc1)c1cc(C(F)(F)F)cc(C(F)(F)F)c1`: the IC50 was 6.89 µM (inactive).

Consider `O=C(Nc1ccc(Oc2ccc(Cl)cc2)c(Cl)c1)c1cc(I)cc(I)c1O`, for which the IC50 is > 10 µM (inactive). The figure for `CC=CC1C(C(=O)OCc2c(F)c(F)c(COC)c(F)c2F)C1(C)C` (centres undefined) is > 10 µM (inactive); for `CN1CCCC(CC2c3ccccc3Sc3ccccc32)C1` (centres undefined) it is 8.68 µM (inactive). The value for `Cc1c(C(=O)NN2CCCCC2)nn(-c2ccc(Cl)cc2Cl)c1-c1ccc(Cl)cc1` was > 10 µM (inactive). In the case of `CCOC(=O)[C@H](CCc1ccccc1)N[C@@H](C)C(=O)N1C(=O)N(C)C[C@H]1C(=O)O`, the IC50 was > 10 µM (inactive).

In the case of `CN(C)C(=O)Oc1cccc([N+](C)(C)C)c1`, the IC50 is > 10 µM (inactive).

In the case of `COC(=O)N[C@H](C(=O)N[C@@H](Cc1ccccc1)[C@@H](O)CN(Cc1ccc(-c2ccccn2)cc1)NC(=O)[C@@H](NC(=O)OC)C(C)(C)C)C(C)(C)C`, the IC50 is > 10 µM (inactive).

With `O=C1CC(c2ccc(Cl)cc2)CC(=O)N1`, the IC50 is > 10 µM (inactive).
